# US20230391760A1, “HETEROCYCLIC GLP-1 AGONISTS” (Gasherbrum Bio, Inc., priority 2020, published 2023)
# Target: GLP-1 Receptor (Homo sapiens, UniProt P43220)
# Test: GLP-1R agonist cAMP stimulation assay (HEK293/GLP1R/CRE-LUC cells, cAMP dynamic 2 Kit)
# Format: cell-based
# Details: HEK293/CRE-Luc cell line stably expressing the GLP-1 Receptor, 30 min at 37° C.
# In short: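 cAMP measured by HTRF competition (d2-labelled cAMP with cryptate antibody, 1 h, room temperature, protected from light). Before that, GLP1R/CRE-Luc HEK293 cells (1000/well) were exposed for 30 min at 37 °C to half-log compound dilutions in DPBS containing IBMX 0.5 mM and BSA 0.1%.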
# GLP-1 Receptor, sequence (P43220 24-463, species assumed): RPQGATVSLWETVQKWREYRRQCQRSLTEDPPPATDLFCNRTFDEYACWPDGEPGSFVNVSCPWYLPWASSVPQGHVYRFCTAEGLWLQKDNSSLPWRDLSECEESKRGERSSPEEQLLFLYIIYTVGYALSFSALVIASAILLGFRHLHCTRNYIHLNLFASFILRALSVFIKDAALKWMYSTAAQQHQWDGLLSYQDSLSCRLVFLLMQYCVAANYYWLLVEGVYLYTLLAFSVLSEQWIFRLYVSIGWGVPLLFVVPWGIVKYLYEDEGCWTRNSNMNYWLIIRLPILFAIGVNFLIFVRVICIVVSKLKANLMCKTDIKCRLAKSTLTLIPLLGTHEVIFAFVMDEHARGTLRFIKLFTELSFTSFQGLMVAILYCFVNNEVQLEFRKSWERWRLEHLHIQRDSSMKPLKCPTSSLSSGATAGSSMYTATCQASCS
row,SMILES,EC50
1,"C[C@]1(c2ccc(Cl)cc2F)Oc2cccc(C3CCN(Cc4nc5cc(-c6nnc(C#N)[nH]6)ncc5n4C[C@@H]4CCO4)CC3)c2O1 [Compound 444a, 5-[2-({4-[(2S)-2-(4-chloro-2-fluorophenyl)-2-methyl-2H-1,3-benzodioxol-4-yl]piperidin-1-yl}methyl)-3-{[(2S)-oxetan-2-yl]methyl}-3H-imidazo[4,5-c]pyridin-6-yl]-4H-1,2,4-triazole-3-carbonitrile]",0.0037 nM
2,"C[C@H](Cn1c(CN2CCC(c3cccc4c3O[C@@](C)(c3ccc(Cl)cn3)O4)CC2)nc2cc(-c3nnc(C(F)(F)F)[nH]3)ncc21)OC(F)F [Compound 476a, 5-chloro-2-[(2S)-4-[1-({3-[(2R)-2-(difluoromethoxy)propyl]-6-[5-(trifluoromethyl)-4H-1,2,4-triazol-3-yl]-3H-imidazo[4,5-c]pyridin-2-yl}methyl)piperidin-4-yl]-2-methyl-2H-1,3-benzodioxol-2-yl]pyridine]",0.25 nM
3,"Cc1nnc(-c2ccc3c(c2)nc(CN2CCC(c4cccc5c4OC(C)(c4ccc(Cl)cn4)O5)CC2)n3CC2(C#N)CC2)[nH]1 (stereo not shown) [Compound 414, 1-{[2-({4-[2-(5-chloropyridin-2-yl)-2-methyl-2H-1,3-benzodioxol-4-yl]piperidin-1-yl}methyl)-5-(5-methyl-4H-1,2,4-triazol-3-yl)-1H-1,3-benzodiazol-1-yl]methyl}cyclopropane-1-carbonitrile]",0.055 nM
4,"N#Cc1ccc(COc2nc(C3CCN(Cc4nc5cc(-c6nnc(C(F)(F)F)[nH]6)ncc5n4C[C@@H]4CCO4)CC3)ncc2F)c(F)c1 [Compound 509a, 3-fluoro-4-{[(5-fluoro-2-{1-[(3-{[(2S)-oxetan-2-yl]methyl}-6-[5-(trifluoromethyl)-4H-1,2,4-triazol-3-yl]-3H-imidazo[4,5-c]pyridin-2-yl)methyl]piperidin-4-yl}pyrimidin-4-yl)oxy]methyl}benzonitrile]",0.074 nM
5,"Fc1cc(Cl)ccc1COc1cccc(C2CCN(Cc3nc4cc(-c5nnn[nH]5)ccc4n3C[C@@H]3CCO3)CC2)n1 [Compound 125a, 2-[(4-{6-[(4-chloro-2-fluorophenyl)methoxy]pyridin-2-yl}piperidin-1-yl)methyl]-1-{[(2S)-oxetan-2-yl]methyl}-5-(1H-1,2,3,4-tetrazol-5-yl)-1H-1,3-benzodiazole]",0.056 nM
6,"CC1(c2ccc(F)cc2)Oc2cccc(C3CCN(Cc4nc5cc(-c6nnc(C(F)(F)F)[nH]6)ccc5n4C[C@@H]4CCO4)CC3)c2O1 (stereo partly drawn) [Compound 258a, 2-({4-[2-(4-fluorophenyl)-2-methyl-2H-1,3-benzodioxol-4-yl]piperidin-1-yl}methyl)-1-{[(2S)-oxetan-2-yl]methyl}-5-[5-(trifluoromethyl)-4H-1,2,4-triazol-3-yl]-1H-1,3-benzodiazole]",0.16 nM
7,"N#Cc1cccc(C(=O)Nc2ccc3c(c2)nc(CN2CCC(c4cccc(OCc5ccc(Cl)cc5F)n4)CC2)n3C[C@@H]2CCO2)c1 [Compound 169a, N-{2-[(4-{6-[(4-chloro-2-fluorophenyl)methoxy]pyridin-2-yl}piperidin-1-yl)methyl]-1-{[(2S)-oxetan-2-yl]methyl}-1H-1,3-benzodiazol-5-yl}-3-cyanobenzamide]",0.92 nM
8,"C[C@H]1CN(c2ncc(F)c(OCc3ccc(Cl)cc3F)n2)CCN1Cc1nc2cc(-c3nnc(C(F)(F)F)[nH]3)nnc2n1C[C@@H]1CCO1 [Compound 512a, 4-[(4-chloro-2-fluorophenyl)methoxy]-5-fluoro-2-[(3S)-3-methyl-4-[(7-{[(2S)-oxetan-2-yl]methyl}-3-[5-(trifluoromethyl)-4H-1,2,4-triazol-3-yl]-7H-imidazo[4,5-c]pyridazin-6-yl)methyl]piperazin-1-yl]pyrimidine]",0.14 nM
9,"CC1(c2ccc(F)cc2F)Oc2cccc(C3CCN(Cc4nc5cc(-c6nnc(C(F)(F)F)[nH]6)ccc5n4C[C@@H]4CCO4)CC3)c2O1 (stereo partly drawn) [Compound 259a, 2-({4-[2-(2,4-difluorophenyl)-2-methyl-2H-1,3-benzodioxol-4-yl]piperidin-1-yl}methyl)-1-{[(2S)-oxetan-2-yl]methyl}-5-[5-(trifluoromethyl)-4H-1,2,4-triazol-3-yl]-1H-1,3-benzodiazole]",0.074 nM
10,"O=S1(=O)CCCN1c1ccc2c(c1)nc(CN1CCC(c3cccc(OCc4ccc(Cl)cc4F)n3)CC1)n2C[C@@H]1CCO1 [Compound 118a, (S)-2-(2-((4-(6-((4-chloro-2-fluorobenzyl)oxy)pyridin-2-yl)piperidin-1-yl)methyl)-1-(oxetan-2-ylmethyl)-1H-benzo[d]imidazol-5-yl)isothiazolidine 1,1-dioxide]",10 nM
11,"Cc1ccc(COc2cccc(C3CCN(Cc4nc5cc(-c6nnc(C(F)(F)F)[nH]6)ncc5n4C[C@@H]4CCO4)CC3)n2)c(F)c1 [Compound 496a, 2-[(2-fluoro-4-methylphenyl)methoxy]-6-{1-[(3-{[(2S)-oxetan-2-yl]methyl}-6-[5-(trifluoromethyl)-4H-1,2,4-triazol-3-yl]-3H-imidazo[4,5-c]pyridin-2-yl)methyl]piperidin-4-yl}pyridine]",0.017 nM
12,"C[C@]1(c2ccc(Cl)cn2)Oc2cccc(C3CCN(Cc4nc5cc(-c6noc(=O)[nH]6)ncc5n4C[C@@H]4CCO4)CC3)c2O1 [Compound 430a, 3-[2-({4-[(2S)-2-(5-chloropyridin-2-yl)-2-methyl-2H-1,3-benzodioxol-4-yl]piperidin-1-yl}methyl)-3-{[(2S)-oxetan-2-yl]methyl}-3H-imidazo[4,5-c]pyridin-6-yl]-4,5-dihydro-1,2,4-oxadiazol-5-one]",0.04 nM
13,"O=c1[nH]c(-c2ccc3c(c2)nc(CC2CC=C(c4nc(OCc5ccc(Cl)cc5F)ncc4F)CC2)n3C[C@@H]2CCO2)no1 (stereo partly drawn) [Compound 242a, 3-(2-((4-(2-((4-chloro-2-fluorobenzyl)oxy)-5-fluoropyrimidin-4-yl)cyclohex-3-en-1-yl)methyl)-1-(((S)-oxetan-2-yl)methyl)-1H-benzo[d]imidazol-5-yl)-1,2,4-oxadiazol-5(4H)-one]",0.36 nM
14,"Fc1cc(Cl)ccc1COc1cccc(C2=CCN(Cc3nc4cc(-c5nnc(C(F)(F)F)[nH]5)cnc4n3C[C@@H]3CCO3)CC2)n1 [Compound 323a, 6-[(4-chloro-2-fluorophenyl)methoxy]-1′-[(3-{[(2S)-oxetan-2-yl]methyl}-6-[5-(trifluoromethyl)-4H-1,2,4-triazol-3-yl]-3H-imidazo[4,5-b]pyridin-2-yl)methyl]-1′,2′,3′,6′-tetrahydro-2,4′-bipyridine]",0.016 nM
15,"O=c1[nH]c(-c2cnc3c(c2)nc(CN2CC=C(c4ccc(F)c(OCc5ccc(Cl)cc5F)c4)CC2)n3C[C@@H]2CCO2)no1 [Compound 293a, 3-{2-[(4-{3-[(4-chloro-2-fluorophenyl)methoxy]-4-fluorophenyl}-1,2,3,6-tetrahydropyridin-1-yl)methyl]-3-{[(2S)-oxetan-2-yl]methyl}-3H-imidazo[4,5-b]pyridin-6-yl}-4,5-dihydro-1,2,4-oxadiazol-5-one]",2.8 nM
16,"O=C(Nc1ccc2c(c1)nc(CN1CCC(c3cccc(OCc4ccc(Cl)cc4F)n3)CC1)n2C[C@@H]1CCO1)c1ccc(C2CC2)nc1 [Compound 176a, N-{2-[(4-{6-[(4-chloro-2-fluorophenyl)methoxy]pyridin-2-yl}piperidin-1-yl)methyl]-1-{[(2S)-oxetan-2-yl]methyl}-1H-1,3-benzodiazol-5-yl}-6-cyclopropylpyridine-3-carboxamide]",8.6 nM
